# Laboratory results from patent US7794712B2, “Production of mutant strain of Aspergillus fumigatus, method of assay for inhibiting siderophore biosynthesis and diagnostic method for detecting likely Aspergillus fumigatus infection” (priority 2004, dated 2010).
# Several values for one entry are separate records, joined by “and”; a condition that tells them apart may be missing. Equal values may be shown once.
# How the values were obtained:
# [1] = system: A. fumigatus 13073; assay: Siderophore secretion inhibitor assay (A440 after FeCl3 addition); type: cell-based, Aspergillus fumigatus; conditions: for A440 (ferrated siderophores): 3 days; for Siderophore production as measured by A440: Neilands' medium without citrate, 48 hours
# Excerpt: In this example 96-well sterile polystyrene filter plates as described above with white Duropore membranes at the base of the plate (Millipore) were used. The plates include a thick plastic layer under the wells, which has a one-way valve function that directs fluid into a receiving 96-well plate when the filter plate is subjected to a vacuum manifold or a centrifugal force. This layer can be peeled off if the membranes are to be sampled (punched) later.
# Cultures were set up in the filter plates, with controls and inhibitors to be tested. After inclubation, culture fluid was pulled into a 96-well receiver plate, using the Beckman centrifuge and a JS 5.3 rotor designed to take 96-well plates. FeCl3 was added to the receiver plates, and A430 (general siderophores) or A440 (max for TAF) was read. Growth was scored in the plate by reading A600.
# To test this method, different antibiotics were used to show inhibition of siderophore production by A. fumigatus 13073, as no inhibitors for the SidA gene product are currently known. Suitable ranges of concentrations of amphotericin B (fungizone), hygromycin, and nystatin were calculated based on the literature. Spores were harvested from A. fumigatus 13073 into PBS Tween, then washed once with PBS and counted. They were then diluted into Neilands' medium (without citrate) to give solutions of 2×10^5 and 2×10^6/ml. 100 μl of 2× spores and 100 μl of 2× antibiotics to yield a volume of 200 μl of Neilands' medium in each well, with the desired final concentrations of spores, 10^5 or 10^6/ml.
# Antibiotics were prepared as follows. Amphotericin B came as a liquid solution, 250 µg/ml. […] Therefore 0, 0.125, 0.25, 0.5, 1 and […] final concentration was used. Nystatin was stored it in ˜1 mg dry aliquots at −20 C, and was prepared at a concentration of 2 mg/ml in DMSO for dilution into Neilands' media. According to reported information, nystatin should be effective at 1.5 to 6.5 µg/ml; therefore, 0, 0.5, 1, 5, 10 and 50 µg/ml were used as the final concentrations. Hygromycin gold stock was in solution at 100 mg/ml, and 0, 25, 50, 100, 150 and 200 µg/ml were used as the final concentrations in Neilands' medium. Plates were incubated for 3 days at 37° C. with shaking.
# To test for siderophores, 20 μL of a solution of 2 mM FeCl3 in 10 mM HCl was added to each well in the receiver plates and the A440 was recorded on a plate reader. […] An increase in A440 indicates a more intense orange-red colour that develops in the presence of ferrated siderophores. […] Because 3-day incubation produces conidia, shorter incubation periods may be preferable.
# (§1) Three identical plates were set up: one filter plate and two sterile clear 96-well plates. The clear plates were used to score growth, and the filter plate was used to detect siderophores. Columns 1-6 contained Neilands' medium without citrate and amphotericin 0-2 at g/ml. Columns 7-12 contained Neilands' medium with citrate and amphotericin at […]. The rows were set up with A. fumigatus as described above, but two sets of each were set up to be in the two plates. The spores from the previous experiment were stored at −20° C. in PBS, in siliconized tubes, at 2×10^8 conidia/ml, to facilitate these experiments. Plates were incubated for 48 hours at 37° C. without shaking.
# (§2) The filter plate was centrifuged at 1000×g for 10 minutes and the liquids caught in a clear non-sterile plate, to which FeCl3 was added. The plate was allowed to sit and develop orange colour, and was then read at 440 nm. The clear plates (one without Fe and one with Fe added to growth medium from the beginning) were read at 600 nm (A600). In the result, iron enhanced conidiation. Some wells of the filter plate were lightly conidiated and would not drain. These were hand pipetted.
# [2] = system: A. fumigatus 13073; assay: Growth scored by A600 in 96-well plates with or without iron; type: cell-based, Aspergillus fumigatus; conditions: 48 hours
# Protocol: Siderophore production and growth was scored by using one antibiotic (amphotericin B) with two types of media (Neilands' with and without citrate), using the same spore concentrations as given above, but a shorter incubation time. Generally, this portion of the assay would be carried out when there was a potential inhibitor which scored positively in the first round of screening. Growth is scored with and without iron in the media.
# as §1, §2
# [3] = system: invasive aspergillosis; conditions: with prophylaxis and treatment; cited from earlier work
structure (smiles),measurement,setting,value
C[C@@H]1[C@H](O)[C@@H](C)/C=C/C=C/C=C/C=C/C=C/C=C/C=C/[C@H](O[C@@H]2O[C@H](C)[C@@H](O)[C@H](N)[C@@H]2O)C[C@@H]2O[C@](O)(C[C@@H](O)C[C@@H](O)[C@H](O)CC[C@@H](O)C[C@@H](O)CC(=O)O[C@H]1C)C[C@H](O)[C@H]2C(=O)O [amphotericin B],A440 (ferrated siderophores),"[1]; amphotericin B 0.13 μg/ml, 1.00E+05 spores/ml",0.178 and 0.156 and 0.145
same,A440 (ferrated siderophores),"[1]; amphotericin B 0.13 μg/ml, 1.00E+06 spores/ml",0.211 and 0.200
same,Siderophore production as measured by A440,"[1]; amphotericin B 0.13 μg/ml, 100000 spores/ml",0.047 and 0.042
same,A440 (ferrated siderophores),"[1]; amphotericin B 0.25 μg/ml, 1.00E+05 spores/ml",0.038 and 0.039 and 0.040
same,A440 (ferrated siderophores),"[1]; amphotericin B 0.25 μg/ml, 1.00E+06 spores/ml",0.085 and 0.168 and 0.130
same,Siderophore production as measured by A440,"[1]; amphotericin B 0.25 μg/ml, 100000 spores/ml",0.044 and 0.043
same,Siderophore production as measured by A440,"[1]; amphotericin B 0.25 μg/ml, 1000000 spores/ml",0.047 and 0.046 and 0.048
same,A440 (ferrated siderophores),"[1]; amphotericin B 0.50 μg/ml, 1.00E+05 spores/ml",0.042 and 0.040 and 0.039
same,A440 (ferrated siderophores),"[1]; amphotericin B 0.50 μg/ml, 1.00E+06 spores/ml",0.038 and 0.042 and 0.035
same,Siderophore production as measured by A440,"[1]; amphotericin B 0.50 μg/ml, 100000 spores/ml",0.042 and 0.043 and 0.046
same,Siderophore production as measured by A440,"[1]; amphotericin B 0.50 μg/ml, 1000000 spores/ml",0.043 and 0.042
same,A440 (ferrated siderophores),"[1]; amphotericin B 1.00 μg/ml, 1.00E+05 spores/ml",0.032 and 0.039 and 0.036
same,Siderophore production as measured by A440,"[1]; amphotericin B 1 μg/ml, 100000 spores/ml",0.042 and 0.041 and 0.045
same,Siderophore production as measured by A440,"[1]; amphotericin B 1 μg/ml, 1000000 spores/ml",0.05 and 0.047
same,A440 (ferrated siderophores),"[1]; amphotericin B 2.00 μg/ml, 1.00E+05 spores/ml",0.041 and 0.034
same,A440 (ferrated siderophores),"[1]; amphotericin B 2.00 μg/ml, 1.00E+06 spores/ml",0.036 and 0.034
same,Siderophore production as measured by A440,"[1]; amphotericin B 2 μg/ml, 100000 spores/ml",0.045
same,Siderophore production as measured by A440,"[1]; amphotericin B 2 μg/ml, 1000000 spores/ml",0.044 and 0.043 and 0.045
same,Effect of iron on growth inhibition,[2]; Neilands' medium with vs without Fe,addition of iron did not change the pattern of growth inhibition
same,Growth as measured by A600,"[2]; amphotericin B 0.13 μg/ml, 1000000 spores/ml, Neilands' medium without citrate or Fe",0.137 and 0.113 and 0.168
same,Growth as measured by A600,"[2]; amphotericin B 0.13 μg/ml, 1000000 spores/ml, Neilands' medium without citrate with Fe",0.139 and 0.113 and 0.169
same,Growth as measured by A600,"[2]; amphotericin B 0.25 μg/ml, 100000 spores/ml, Neilands' medium without citrate or Fe",0.068 and 0.083 and 0.076
same,Growth as measured by A600,"[2]; amphotericin B 0.25 μg/ml, 100000 spores/ml, Neilands' medium without citrate with Fe",0.067 and 0.091 and 0.076
same,Growth as measured by A600,"[2]; amphotericin B 0.25 μg/ml, 1000000 spores/ml, Neilands' medium without citrate or Fe",0.111 and 0.126 and 0.157
same,Growth as measured by A600,"[2]; amphotericin B 0.25 μg/ml, 1000000 spores/ml, Neilands' medium without citrate with Fe",0.11 and 0.126 and 0.157
same,Growth as measured by A600,"[2]; amphotericin B 0.50 μg/ml, 100000 spores/ml, Neilands' medium without citrate or Fe",0.035
same,Growth as measured by A600,"[2]; amphotericin B 0.5 μg/ml, 100000 spores/ml, Neilands' medium without citrate with Fe",0.035 and 0.034
same,Growth as measured by A600,"[2]; amphotericin B 0.50 μg/ml, 1000000 spores/ml, Neilands' medium without citrate or Fe",0.038 and 0.039 and 0.037
same,Growth as measured by A600,"[2]; amphotericin B 0.5 μg/ml, 1000000 spores/ml, Neilands' medium without citrate with Fe",0.038 and 0.039
same,Growth as measured by A600,"[2]; amphotericin B 1 μg/ml, 100000 spores/ml, Neilands' medium without citrate or Fe",0.035 and 0.036
same,Growth as measured by A600,"[2]; amphotericin B 1 μg/ml, 100000 spores/ml, Neilands' medium without citrate with Fe",0.035
same,Growth as measured by A600,"[2]; amphotericin B 1 μg/ml, 1000000 spores/ml, Neilands' medium without citrate or Fe",0.039 and 0.038
same,Growth as measured by A600,"[2]; amphotericin B 1 μg/ml, 1000000 spores/ml, Neilands' medium without citrate with Fe",0.039
same,Growth as measured by A600,"[2]; amphotericin B 2 μg/ml, 100000 spores/ml, Neilands' medium without citrate or Fe",0.035 and 0.036
same,Growth as measured by A600,"[2]; amphotericin B 2 μg/ml, 100000 spores/ml, Neilands' medium without citrate with Fe",0.035
same,Growth as measured by A600,"[2]; amphotericin B 2 μg/ml, 1000000 spores/ml, Neilands' medium without citrate or Fe",0.038 and 0.039
same,Growth as measured by A600,"[2]; amphotericin B 2 μg/ml, 1000000 spores/ml, Neilands' medium without citrate with Fe",0.038 and 0.039
same,Mortality rate if the disease spreads to the central nervous system,[3],~100%
same,"Mortality rate, pulmonary aspergillosis",[3],65%
